Measured values from patent publication US10179789B2, “Methylenedioxybenzo [I] phenanthridine derivatives used to treat cancer” (Rutgers, The State University of New Jersey, priority 2009, dated 2019).
Read-outs that look alike come from different tables or passages of the source.

What was measured:
human topoisomerase I = target: T1, human topoisomerase I (Homo sapiens, UniProt P11387); test: Test A. Topoisomerase I-mediated DNA cleavage assay; type: biochemical; conditions: Relative Effective Concentration; relative to camptothecin arbitrarily assumed as 0.2; same 10% cleavage on plasmid DNA
T1 construct: unnamed fusion partner (recombinant fusion protein, T7 expression system); made in house; host or cells: Escherichia coli
T1 sequence (P11387 1-765): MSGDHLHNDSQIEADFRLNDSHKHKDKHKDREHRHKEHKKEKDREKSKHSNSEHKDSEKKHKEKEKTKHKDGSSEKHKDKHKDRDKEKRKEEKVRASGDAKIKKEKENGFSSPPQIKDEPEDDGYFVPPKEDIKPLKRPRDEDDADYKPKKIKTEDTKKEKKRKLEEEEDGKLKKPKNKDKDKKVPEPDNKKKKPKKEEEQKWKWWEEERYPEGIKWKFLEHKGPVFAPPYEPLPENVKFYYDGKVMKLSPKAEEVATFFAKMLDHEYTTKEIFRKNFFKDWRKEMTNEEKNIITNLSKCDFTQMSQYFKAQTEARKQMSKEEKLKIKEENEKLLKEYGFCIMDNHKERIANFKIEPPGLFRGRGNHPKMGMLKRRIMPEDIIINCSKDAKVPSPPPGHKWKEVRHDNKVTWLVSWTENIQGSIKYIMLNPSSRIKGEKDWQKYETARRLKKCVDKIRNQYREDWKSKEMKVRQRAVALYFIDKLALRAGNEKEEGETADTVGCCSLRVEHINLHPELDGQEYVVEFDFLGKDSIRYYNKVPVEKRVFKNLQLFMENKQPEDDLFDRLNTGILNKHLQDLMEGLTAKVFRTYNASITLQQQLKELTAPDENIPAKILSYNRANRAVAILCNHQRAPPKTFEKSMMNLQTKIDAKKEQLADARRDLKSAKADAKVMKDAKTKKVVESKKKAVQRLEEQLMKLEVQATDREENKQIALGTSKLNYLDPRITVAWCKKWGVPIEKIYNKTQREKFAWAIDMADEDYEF
Source text: Test A. Topoisomerase I—Mediated DNA Cleavage Assay Human topoisomerase I was expressed in Escherichia coli and isolated as a recombinant fusion protein using a T7 expression system as described previously (31). Plasmid YepG was also purified by the alkali lysis method followed by phenol deproteination and CsCl/ethidium isopycnic centrifugation method as described (32). The 3′ end labeling of the plasmid was accomplished by digestion with a restriction enzyme followed by end filling with Klenow polymerase as previously described (33). The cleavage assays were performed as previously reported (34,35). The drug and the DNA in presence of topoisomerase I was incubated for 30 min at room temperature. The reactions were terminated by the addition of 5 μL of 5% SDS and 1 mg/mL […] with an additional 1 h of incubation at 37° C. […] After development of the gels, typically 24-h exposure was used to obtain autoradiograms outlining the extent of DNA fragmentation. Topoisomerase I-mediated DNA cleavage values are reported as Relative Effective Concentration (REC). […] Results for the assay for representative compounds of the invention of formula I along with comparison compounds are shown in Table 1.

[1] = tested on: RPMI 8402 human lymphoblast cells; test: Test B. MTT cytotoxicity assay, RPMI8402; type: cell-based
Experimental: (§1) Test B. Cytotoxic Assays (Cancer Cell Lines and Efflux Transporter Cell Lines)
(§2) The cytotoxicity was determined using the MTT-microtiter plate tetrazolinium cytotoxicity assay (MTA). The human lymphoblast RPMI 8402 and its camptothecin-resistant variant cell line, CPT-K5 was provided by Dr. Toshiwo Andoh (Aichi Cancer Center Research Institute, Nagoya, Japan). (36) The P388 mouse leukemia cell line and its CPT-resistant TOP1-deficient variant P388/CPT45 (37) were obtained from Michael R. Mattern and Randal K. Johnson (GlaxoSmithKline, King of Prussia, Pa.). The KB3-1 cell line and its multidrug-resistant variant KBV-1 (38) were obtained from K. V. Chin (The Cancer Institute of New Jersey, New Brunswick, N.J.). The KBH5.0 cell line as noted previously (21) was derived from KB3-1 by stepwise selection against Hoechst 33342. The cytotoxicity assay was performed using 96-well microtiter plates. Cells were grown in suspension at 37° C. in 5% CO2 and maintained by regular passage in RPMI medium supplemented with 10% heat inactivated fetal bovine serum, L-glutamine (2 mM), penicillin (100 U/mL), and Streptomycin (0.1 mg/mL). For determination of IC50, cells were exposed continuously for FOUR days to varying concentrations of drug, and MTT assays were performed at the end of the fourth day. […] All assays were performed at least twice in six replicate wells.

[2] = tested on: CPT-K5 (camptothecin-resistant variant of RPMI 8402); test: Test B. MTT cytotoxicity assay, CPT-K5; type: cell-based, human
Experimental: as §1, §2

[3] = tested on: P388 mouse leukemia cell line; test: Test B. MTT cytotoxicity assay, P388; type: cell-based
Experimental: as §1, §2

[4] = tested on: P388/CPT45 (CPT-resistant TOP1-deficient variant of P388); test: Test B. MTT cytotoxicity assay, P388/CPT45; type: cell-based, mouse; conditions: read-out: Cytotoxicity IC50 P388/CPT45
Experimental: as §1, §2

[5] = Cytotoxicity on KB3-1 (parent cell line); type: cell-based; conditions: human
Experimental: as §2
(§3) The cytotoxicity of the representative compounds of the invention were also tested on cell line KB3-1 (parent cell line), KBV-1 (a variant that overexpresses efflux transporter MDR1) and KBH5.0 (a variant that overexpresses BCRP). Differences in the relative cytotoxicity between the parent and variant cell lines may be indicative of a compound that is a substrate for an efflux transporter. […] Accordingly, compounds of the invention of formula I may be useful to treat tumors that are resistant to other anticancer agents, especially anticancer agents that are susceptible to efflux by BCRP (e.g. anthracyclines, mitoxantrone, topotecan, irinotecan, bisanthrone, doxorubicin, daunorubicin, and epirubin.

MDR1 = test: Cytotoxicity on KBV-1 (overexpresses MDR1); type: cell-based; conditions: human
Experimental: as §2, §3

BCRP = test: Cytotoxicity on KBH5.0 (overexpresses BCRP); type: cell-based; conditions: human
Experimental: as §2, §3

KB3-1 cell line = test: Cytotoxicity on KB3-1 (parent cell line); type: cell-based
Experimental: as §2, §3

[6] = tested on: KBV-1 (variant that overexpresses efflux transporter MDR1); test: Cytotoxicity on KBV-1 (overexpresses MDR1); type: cell-based
Experimental: as §2, §3

[7] = tested on: KBH5.0 (variant that overexpresses BCRP); test: Cytotoxicity on KBH5.0 (overexpresses BCRP); type: cell-based; conditions: for substrate for BCRP: not told
Experimental: as §2, §3

[8] = Homo sapiens, RPMI 8402, 96 h, read-out: Cytotoxicity IC50 RPMI8402
[9] = Homo sapiens, CPT-K5, 96 h, read-out: Cytotoxicity IC50 CPT-K5
[10] = Mus musculus, P388, 96 h, read-out: Cytotoxicity IC50 P388

Structure (SMILES)	TOP1 Mediated DNA Cleavage (REC Value) (human topoisomerase I)	IC50 ([4]; Mus musculus, P388CPT45, 96 h)	IC50 [1, 8]	IC50 [2, 9]	IC50 [3, 10]	IC50 at 4 days [5]	IC50 at 4 days (MDR1)	IC50 at 4 days (BCRP)	melting point	further results
CC[C@@]1(O)C(=O)OCc2c1cc1n(c2=O)Cc2cc3ccccc3nc2-1 [CPT, Camptothecin, reference compound]	0.2	> 10 µM								IC50 ([1]; Homo sapiens, RPMI 8402, 96 h, RPMI8402, four days continuous exposure, MTT, read-out: Cytotoxicity IC50 RPMI8402): 0.006 µM; IC50 ([2]; Homo sapiens, 96 h, CPT-K5, four days continuous exposure, MTT, read-out: Cytotoxicity IC50 CPT-K5): > 10 µM; IC50 ([3]; Mus musculus, 96 h, P388, four days continuous exposure, MTT, read-out: Cytotoxicity IC50 P388): 0.014 µM; IC50 at 4 days ([5]; KB3-1 cells (parent cell line), KB3-1 parent cell line, read-out: Cytotoxicity KB3-1): 0.015 µM; IC50 at 4 days (MDR1; KBV-1, overexpresses MDR1, read-out: Cytotoxicity KBV-1): 0.025 µM; IC50 at 4 days (BCRP; KBH5.0 cells (KB3-1 variant that overexpresses BCRP), KBH5.0, overexpresses BCRP, read-out: Cytotoxicity KBH5.0): 0.026 µM
COc1cc2c(C(=O)NCC(C)(C)N(C)C)cc3c4cc5c(cc4ncc3c2cc1OC)OCO5 [Compound 31, 2,3-Dimethoxy-N-(2-(dimethylamino)-2-methylpropyl)-8,9-methylene-dioxybenzo[i] phenanthridine-12-carboxamide]	0.1									IC50 [1]: 0.002 µM; IC50 [2]: 0.79 µM; IC50 [3]: 0.002 µM; IC50 ([4]; P388/CPT45, four days continuous exposure, MTT): 0.25 µM; IC50 (KB3-1 cell line): 0.001 µM; IC50 [6]: 0.03 µM; IC50 [7]: 0.004 µM; substrate for BCRP [7]: not substrates for BCRP
COc1cc2c(C(=O)NCC(C)(C)N)cc3c4cc5c(cc4ncc3c2cc1OC)OCO5 [Compound 33, N-(2-Amino-2-methylpropyl)-2,3-dimethoxy-8,9-methylenedioxybenzo[i]phenanthridine-12-carboxamide]	1.1	0.76 µM	0.01 µM	2.2 µM	0.02 µM	0.004 µM	0.48 µM	0.19 µM	269 to 271 °C (dec.)	
COc1cc2cc(C(=O)NCC(C)(C)N(C)C)c3c4cc5c(cc4ncc3c2cc1OC)OCO5 [Compound 34, 2,3-Dimethoxy-8,9-methylenedioxybenzo[i]phenanthridine-11-carboxylic acid 2-(dimethylamino)-2-methylpropylamide]	0.09	0.23 µM	0.003 µM	0.5 µM	0.002 µM	0.003 µM	0.065 µM	0.01 µM	222 to 225 °C	substrate for BCRP [7]: not substrates for BCRP
COc1cc2c(C(=O)NCCC(C)(C)N(C)C)cc3c4cc5c(cc4ncc3c2cc1OC)OCO5 [Compound 42, 2,3-Dimethoxy-N-(3-(dimethylamino)-3-methylbutyl)-8,9-methylenedioxybenzo[i]phenanthridine-12-carboxamide]	2.3	0.53 µM	0.025 µM	2.07 µM	0.09 µM	0.05 µM	2.5 µM	0.16 µM	228 to 230 °C	
COc1cc2c(C(=O)NCCCC(C)(C)N(C)C)cc3c4cc5c(cc4ncc3c2cc1OC)OCO5 [Compound 43, 2,3-Dimethoxy-N-(4-(dimethylamino)-4-methylpentyl)-8,9-methylenedioxybenzo[i]phenanthridine-12-carboxamide]	3.4	0.4 µM	0.16 µM	3 µM	0.18 µM	0.25 µM	2.8 µM	0.6 µM	235 to 237 °C	
COc1cc2cc(C(=O)NCCC(C)(C)N(C)C)c3c4cc5c(cc4ncc3c2cc1OC)OCO5 [Compound 44, 2,3-Dimethoxy-8,9-methylenedioxybenzo[i]phenanthridine-11-carboxylic acid 3-(dimethylamino)-3-methylbutylamide]	0.4	1.27 µM	0.15 µM	5 µM	0.27 µM	0.24 µM	> 10 µM	0.47 µM	233 to 235 °C	
COc1cc2cc(C(=O)NCCCC(C)(C)N(C)C)c3c4cc5c(cc4ncc3c2cc1OC)OCO5 [Compound 45, 2,3-Dimethoxy-8,9-methylenedioxybenzo[i]phenanthridine-11-carboxylic acid 4-(dimethylamino)-4-methylpentylamide]	2.5	3.25 µM	0.28 µM	5.5 µM	0.28 µM	0.21 µM	> 10 µM	0.85 µM	239 to 242 °C	
COc1cc2c(C(=O)NCCN(C)C)cc3c4cc5c(cc4ncc3c2cc1OC)OCO5 [Compound 206, reference compound]	0.1	0.32 µM	0.003 µM	1 µM	0.003 µM	0.005 µM	0.22 µM	0.06 µM		
COc1cc2cc(C(=O)NCCN(C)C)c3c4cc5c(cc4ncc3c2cc1OC)OCO5 [Compound 216, reference compound]	0.2	0.26 µM	0.035 µM	0.63 µM	0.015 µM	0.027 µM	1.4 µM	0.2 µM		
CC[C@@]1(O)C(=O)OCc2c1cc1n(c2=O)Cc2cc3c(CN(C)C)c(O)ccc3nc2-1 [Topotecan, topotecan, reference compound]	1.0	> 10 µM	0.021 µM	> 10 µM	0.045 µM	0.04 µM	0.44 µM	0.44 µM		
